Assay results from article PMC12138978, “Mu Opioid Receptor Positive Allosteric Modulator BMS-986122 Confers Agonist-Dependent G Protein Subtype Signaling Bias” (Biochemistry, 2025).
“And” between values parts separate entries of the source, which are not always exact repeats. Equal entries are not always repeated. Marks after values point to notes of the source that are not given here.

What was measured:
[1] = biological target: human MOR (Homo sapiens, UniProt P35372); experiment: [3H]naloxone competition binding, MOR-CHO cell membranes, low-affinity buffer; details: fold change of Ki, vehicle vs 10 μM BMS-986122
Protocol: Chinese hamster ovary cells stably expressing the human MOR (MOR-CHO; obtained from Dr. George Uhl, NIDA Intramural Research Program, Baltimore, MD) were cultured in 10 cm dishes in Dulbecco’s modified Eagle’s medium (DMEM) supplemented with 5% fetal bovine serum and 100 U/mL penicillin–streptomycin at 37 °C in a 10% CO2 atmosphere. Cell membranes were isolated and homogenized as previously described, and membrane protein concentrations were determined with bovine serum albumin as the control as previously described. Membranes were stored at −80 °C until use.
[^3H]­Naloxone was used at a final concentration of 1.0 nM, and nonspecific binding was measured using 10 μM unlabeled naloxone. Membranes were added last to the incubation tube. All assays were performed at 25 °C and terminated by rapid vacuum filtration through Whatman #32 glass fiber filters using a Brandel cell harvester (Biomedical Research and Development Laboratories Inc., Gaithersburg, MD) followed by three ice-cold washes with 50 mM Tris-HCl, pH 7.4. Samples were collected and counted in 2 mL of Ecoscint A scintillation fluid (National Diagnostics, Atlanta, GA) for 2 min each using a LS 6500 scintillation counter (Beckman Coulter Inc., Fullerton, CA).
For competition binding experiments, the specific binding of the radioligand in the absence of other competing compounds was set at 100%. The percent of control binding was calculated for increasing concentrations of the competing compounds. A three- or four-parameter logistic curve was fit to the data by using SigmaPlot 11 (Systat Software Inc., San Jose, CA). […] Ki values were calculated as described previously. Statistical differences between Ki values were calculated using a two-tailed Student’s t test. Receptor binding data were reported as the mean Ki value ± SEM from three separate experiments performed in triplicate.

[2] = biological target: T1, human MOR signaling through Gαi1 (Homo sapiens, UniProt P35372); type: cell-based
T1 construct: host or cells: HEK 293T, transient

[3] = biological target: T2, human MOR signaling through Gαi2 (Homo sapiens, UniProt P35372); type: cell-based
T2 construct: host or cells: HEK 293T, transient

[4] = biological target: T3, human MOR signaling through Gαi3 (Homo sapiens, UniProt P35372); type: cell-based
T3 construct: host or cells: HEK 293T, transient

[5] = biological target: T4, human MOR signaling through GαoA (Homo sapiens, UniProt P35372); type: cell-based
T4 construct: host or cells: HEK 293T, transient

[6] = biological target: T5, human MOR signaling through GαoB (Homo sapiens, UniProt P35372); type: cell-based
T5 construct: host or cells: HEK 293T, transient

[7] = biological target: T6, human MOR signaling through Gαz (Homo sapiens, UniProt P35372); type: cell-based
T6 construct: host or cells: HEK 293T, transient

[8] = system: human MOR signaling through different Gα subunits; experiment: nanoBRET assay, comparison or average across Gα subunits; type: cell-based; details: for Average maximal increase in potency (EC50) caused by BMS-986122: average over Gα subunits, 10 μM BMS-986122
[9] = biological target: T7, human MOR signaling through GαoA, GαoB and Gαi3 (Homo sapiens, UniProt P35372); experiment: TruPATH BRET2 assay in HEK 293T cells compared with nanoBRET; type: cell-based; details: GαoB and Gαi3, 10 μM BMS-986122, Student's t test
T7 construct: host or cells: HEK 293T, transient

[10] = biological target: T8, MOR signaling through GαoB-i3ct (Homo sapiens, UniProt P35372); experiment: nanoBRET assay, MOR signaling through GαoB-i3ct chimera (data not shown); type: cell-based
T8 construct: expressed in transfected cells; host or cells: HEK 293T (inferred: same nanoBRET system)

[11] = biological target: T9, human MOR signaling through Gαz with RGS20 (Homo sapiens, UniProt P35372); experiment: nanoBRET assay, MOR signaling through Gαz with RGS20 (RGSz1) coexpression; type: cell-based; details: RGS20 coexpressed
T9 construct: host or cells: HEK 293T, transient

[12] = biological target: human mu opioid receptor (MOR) (human) (UniProt P35372)
[13] = biological target: human mu opioid receptor (MOR) (human) (UniProt P35372); experiment: radioligand binding; competition with 1.0 nM [3H]naloxone on MOR-CHO cell membranes (50 ug membrane protein), vehicle; 60 min, 25 C; 50 mM Tris-HCl pH 7.4, 100 mM NaCl, 5 mM MgCl2, 1 mM EDTA, 1 mM DTT, 50 uM GDP (low-affinity buffer)
[14] = biological target: human mu opioid receptor (MOR) (human) (UniProt P35372); experiment: radioligand binding; competition with 1.0 nM [3H]naloxone on MOR-CHO cell membranes (50 ug membrane protein), in the presence of 10 uM BMS-986122; 60 min, 25 C; 50 mM Tris-HCl pH 7.4, 100 mM NaCl, 5 mM MgCl2, 1 mM EDTA, 1 mM DTT, 50 uM GDP (low-affinity buffer)

T5 sequence (P35372 whole entry): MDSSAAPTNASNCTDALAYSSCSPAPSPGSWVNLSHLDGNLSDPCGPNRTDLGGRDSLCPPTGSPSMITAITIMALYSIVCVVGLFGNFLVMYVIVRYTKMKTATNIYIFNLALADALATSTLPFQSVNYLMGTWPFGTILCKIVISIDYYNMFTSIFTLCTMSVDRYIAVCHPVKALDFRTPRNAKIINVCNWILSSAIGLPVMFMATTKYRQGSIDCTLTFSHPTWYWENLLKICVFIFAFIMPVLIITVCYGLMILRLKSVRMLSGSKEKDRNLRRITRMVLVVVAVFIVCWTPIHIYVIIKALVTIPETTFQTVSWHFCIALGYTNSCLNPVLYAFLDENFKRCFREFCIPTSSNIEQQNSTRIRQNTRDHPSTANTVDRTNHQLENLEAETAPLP
T5 sequence (P09471 2-354 isoform P09471-2 partner limits assumed): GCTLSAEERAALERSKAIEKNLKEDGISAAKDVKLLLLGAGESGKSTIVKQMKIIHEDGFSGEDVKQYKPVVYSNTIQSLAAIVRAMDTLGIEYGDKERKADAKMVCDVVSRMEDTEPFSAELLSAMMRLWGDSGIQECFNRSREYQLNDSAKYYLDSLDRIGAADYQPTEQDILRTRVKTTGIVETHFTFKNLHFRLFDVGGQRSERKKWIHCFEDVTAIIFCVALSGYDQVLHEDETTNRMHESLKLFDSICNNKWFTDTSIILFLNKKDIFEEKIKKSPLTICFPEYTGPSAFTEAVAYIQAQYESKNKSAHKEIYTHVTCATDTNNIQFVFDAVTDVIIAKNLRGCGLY
Chain of human MOR (P35372 whole entry): as the sequence (P35372 whole entry) above
T6 sequence (P35372 whole entry): as above
T6 sequence (P19086 2-355 partner limits assumed): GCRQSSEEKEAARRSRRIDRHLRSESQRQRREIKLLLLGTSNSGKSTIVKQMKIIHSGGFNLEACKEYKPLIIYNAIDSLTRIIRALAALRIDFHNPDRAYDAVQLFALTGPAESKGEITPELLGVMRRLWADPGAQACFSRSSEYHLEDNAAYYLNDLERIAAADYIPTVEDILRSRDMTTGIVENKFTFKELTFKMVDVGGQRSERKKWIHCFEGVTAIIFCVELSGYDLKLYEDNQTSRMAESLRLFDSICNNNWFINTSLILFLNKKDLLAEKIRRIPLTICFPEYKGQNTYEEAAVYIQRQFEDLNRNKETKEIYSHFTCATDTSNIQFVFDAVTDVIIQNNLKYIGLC
Chain of human mu opioid receptor (MOR) (human) (P35372 whole entry): as the sequence (P35372 whole entry) above
T2 sequence (P35372 whole entry): as above
T2 sequence (P04899 2-355 partner limits assumed): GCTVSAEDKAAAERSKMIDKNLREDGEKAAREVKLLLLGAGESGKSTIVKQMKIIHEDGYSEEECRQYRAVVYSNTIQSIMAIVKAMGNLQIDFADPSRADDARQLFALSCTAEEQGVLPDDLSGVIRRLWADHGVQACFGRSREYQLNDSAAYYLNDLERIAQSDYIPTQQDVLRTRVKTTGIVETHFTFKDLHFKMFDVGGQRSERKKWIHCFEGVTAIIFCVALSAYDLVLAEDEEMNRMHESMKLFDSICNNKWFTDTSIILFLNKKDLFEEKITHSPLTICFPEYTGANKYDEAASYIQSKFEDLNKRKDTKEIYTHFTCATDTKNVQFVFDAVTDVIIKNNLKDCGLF
T3 sequence (P35372 whole entry): as the sequence (P35372 whole entry) above
T3 sequence (P08754 2-354 partner limits assumed): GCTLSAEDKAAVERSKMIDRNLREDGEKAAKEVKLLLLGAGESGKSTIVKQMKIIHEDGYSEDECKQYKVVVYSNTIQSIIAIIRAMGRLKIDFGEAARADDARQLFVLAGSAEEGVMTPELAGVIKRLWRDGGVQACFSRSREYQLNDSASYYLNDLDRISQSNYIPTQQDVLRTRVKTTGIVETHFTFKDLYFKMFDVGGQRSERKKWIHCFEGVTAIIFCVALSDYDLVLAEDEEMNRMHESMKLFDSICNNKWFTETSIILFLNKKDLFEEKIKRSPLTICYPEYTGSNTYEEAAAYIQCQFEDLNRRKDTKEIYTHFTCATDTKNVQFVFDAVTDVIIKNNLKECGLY
T1 sequence (P35372 whole entry): as the sequence (P35372 whole entry) above
T1 sequence (P63096 2-354 partner limits assumed): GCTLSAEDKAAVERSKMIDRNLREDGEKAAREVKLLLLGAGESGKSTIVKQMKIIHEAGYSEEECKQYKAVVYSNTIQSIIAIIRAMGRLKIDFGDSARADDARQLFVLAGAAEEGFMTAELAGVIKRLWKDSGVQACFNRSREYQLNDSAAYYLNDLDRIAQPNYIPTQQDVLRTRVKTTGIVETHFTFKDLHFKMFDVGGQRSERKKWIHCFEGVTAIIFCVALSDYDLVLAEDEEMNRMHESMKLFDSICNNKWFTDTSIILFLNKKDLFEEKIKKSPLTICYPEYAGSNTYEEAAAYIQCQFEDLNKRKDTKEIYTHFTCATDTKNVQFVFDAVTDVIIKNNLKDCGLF
T4 sequence (P35372 whole entry): as the sequence (P35372 whole entry) above
T4 sequence (P09471 2-354 partner limits assumed): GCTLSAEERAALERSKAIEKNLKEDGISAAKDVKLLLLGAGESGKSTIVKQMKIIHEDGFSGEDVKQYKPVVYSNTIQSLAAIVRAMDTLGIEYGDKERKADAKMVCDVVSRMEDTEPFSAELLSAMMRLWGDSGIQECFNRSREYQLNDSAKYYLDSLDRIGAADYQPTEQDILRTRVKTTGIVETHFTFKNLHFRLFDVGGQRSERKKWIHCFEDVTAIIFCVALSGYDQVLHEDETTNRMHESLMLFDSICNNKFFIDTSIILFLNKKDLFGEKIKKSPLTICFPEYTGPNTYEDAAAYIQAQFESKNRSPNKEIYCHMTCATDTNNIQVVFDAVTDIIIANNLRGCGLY
T8 sequence (P35372 whole entry): as the sequence (P35372 whole entry) above
T9 sequence (P35372 whole entry): as above
T9 sequence (P19086 2-355 partner limits assumed): as the sequence (P19086 2-355 partner limits assumed) above
T7 sequence (P35372 whole entry): as the sequence (P35372 whole entry) above

Molecule: C[C@@H](NC(=O)[C@@H](N)Cc1ccc(O)cc1)C(=O)NCC(=O)N(C)[C@@H](Cc1ccccc1)C(=O)NCCO [DAMGO, [D-Ala 2, N-MePhe 4, Gly-ol]-enkephalin]
- Ki (Veh)/Ki (BMS) [1]: 6.8 ****
- ΔpEC50 [2]: 0.596 ± 0.023
- ΔpEC50 [3]: 0.712 ± 0.064
- ΔpEC50 [4]: 0.467 ± 0.104
- ΔpEC50 [5]: 0.667 ± 0.022
- ΔpEC50 [6]: 0.791 ± 0.109
- ΔpEC50 [7]: 0.529 ± 0.087
- Average maximal increase in potency (EC50) caused by BMS-986122 [8]: 4.5 fold

Molecule: Cc1ccccc1COc1ccc(C2C3=C(CC(C)(C)CC3=O)OC3=C2C(=O)CC(C)(C)C3)cc1 [BMS-986187]
- ΔΔlog(τ)oB-i3 ([8]; 7-hydroxymitragnine as agonist, 10 μM PAM, relative transduction coefficients compared between Gαi3 and GαoB): 0.157

Molecule: COc1cc(Br)ccc1C1SCCN1S(=O)(=O)c1ccc(Cl)cc1 (stereo not drawn) [BMS-986124]
- Antagonism of the effect of 3 μM BMS-986122 on the potency of DAMGO [3]: antagonized the effect of 3 μM BMS-986122, but not completely
- Antagonism of the effect of 3 μM BMS-986187 on the potency of DAMGO [3]: partially block the effect of 3 μM BMS-986187

Molecule: CC[C@@H]1CN2CC[C@@]3(O)C(=Nc4cccc(OC)c43)[C@@H]2C[C@@H]1/C(=C\OC)C(=O)OC [7-Hydroxymitragynine]
- Ki (Veh)/Ki (BMS) [1]: 1.1 ns
- Emax [7]: 33 ± 3.0% and 65 ± 4.1%
- Δlog(τ) in TruPATH compared with nanoBRET [9]: not statistically different
- Efficacy modulation by BMS-986122 [10]: reduced
- Intrinsic efficacy [10]: increased substantially

Molecule: CC(C)=CCN1CCC2(C)c3cc(O)ccc3CC1C2C (single isomer, unassigned; (-)) [(−)-Pentazocine]
- Ki (Veh)/Ki (BMS) [1]: 1.0 ns
- Emax [2]: 56 ± 1.4% and 105 ± 1.2%
- Emax [3]: 35 ± 2.0% and 66 ± 4.3%
- Emax [4]: 70 ± 1.8% and 102 ± 1.8%
- Emax [5]: 48 ± 2.2% and 88 ± 3.0%
- Emax [6]: 74 ± 0.33% and 96 ± 2.6%
- Emax [7]: 105 ± 1.8% and 110 ± 6.7%
- Emax with RGS20 coexpression versus without [11]: dramatically reduced

Molecule: CSCC[C@H](NC(=O)[C@H](Cc1ccccc1)NC(=O)CNC(=O)CNC(=O)[C@@H](N)Cc1ccc(O)cc1)C(=O)O [Met-Enkephalin, methionine-enkephalin]
- Average maximal increase in potency (EC50) caused by BMS-986122 [8]: 3.8 fold

Molecule: [D-Ala 2, N-MePhe 4, Gly-ol]-enkephalin (DAMGO) acetate (peptide)
- EC50, nanoBRET G protein activation in HEK 293T cells, MOR signaling through Gαi1, vehicle [12]: 58 nM
- EC50, nanoBRET G protein activation in HEK 293T cells, MOR signaling through Gαi2, vehicle [12]: 46 nM
- EC50, nanoBRET G protein activation in HEK 293T cells, MOR signaling through Gαi2, with 10 μM BMS-986122 [12]: 9.1 nM
- EC50, nanoBRET G protein activation in HEK 293T cells, MOR signaling through Gαi3, vehicle [12]: 24 nM
- EC50, nanoBRET G protein activation in HEK 293T cells, MOR signaling through Gαi3, with 10 μM BMS-986122 [12]: 7.3 nM
- EC50, nanoBRET G protein activation in HEK 293T cells, MOR signaling through GαoA, with 10 μM BMS-986122 [12]: 10 nM
- EC50, nanoBRET G protein activation in HEK 293T cells, MOR signaling through GαoB, vehicle [12]: 74 nM
- EC50, nanoBRET G protein activation in HEK 293T cells, MOR signaling through GαoB, with 10 μM BMS-986122 [12]: 11 nM
- EC50, nanoBRET G protein activation in HEK 293T cells, MOR signaling through Gαz, vehicle [12]: 10 nM
- EC50, nanoBRET G protein activation in HEK 293T cells, MOR signaling through Gαz, with 10 μM BMS-986122 [12]: 3.2 nM
- Ki [13]: 240 nM
- Ki [14]: 35 nM

Molecule: methionine-enkephalin (met-enkephalin) acetate (peptide)
- EC50, nanoBRET G protein activation in HEK 293T cells, MOR signaling through Gαi1, vehicle [12]: 52 nM
- EC50, nanoBRET G protein activation in HEK 293T cells, MOR signaling through Gαi1, with 10 μM BMS-986122 [12]: 10 nM
- EC50, nanoBRET G protein activation in HEK 293T cells, MOR signaling through Gαi3, with 10 μM BMS-986122 [12]: 8.7 nM
- EC50, nanoBRET G protein activation in HEK 293T cells, MOR signaling through GαoA, vehicle [12]: 53 nM
- EC50, nanoBRET G protein activation in HEK 293T cells, MOR signaling through GαoB, vehicle [12]: 53 nM
- EC50, nanoBRET G protein activation in HEK 293T cells, MOR signaling through GαoB, with 10 μM BMS-986122 [12]: 14 nM
- EC50, nanoBRET G protein activation in HEK 293T cells, MOR signaling through Gαz, with 10 μM BMS-986122 [12]: 17 nM
- Ki [14]: 48 nM
